Test results as given in patent publication US9873724B2, “Pro-angiogenic peptides and peptide conjugates” (Yissum Research Development Company of the Hebrew …, priority 2013, dated 2018).
Where “and” joins values, the source holds several entries; their conditions need not be identical. Equal entries are not always repeated. Square brackets hold non-standard residues; d marks the D form. * marks the point of attachment. Myristoyl = CCCCCCCCCCCCCC(=O)*; Nle = CCCC[C@H](N)C(=O)O

What was measured:
[1] = tested on: Mice/Balb/c, hind limb ischemia model; assay: Mouse hind limb ischemia/angiogenesis model; type: in vivo
Source text: The object of this study was to determine whether administration of the test items, peptides AB-017 (SEQ ID NO: 12) and 725-106 (positive control, SEQ ID NO: 2) can enhance angiogenesis, subsequently inducing clinical and motor function improvement in a hind limb ischemia model. The principle of the test is based on changes in perfusion rate, clinical signs and histological parameters (necrosis) following administration of the test compounds.
Each tested group included 4-7 mice per group. Intraperitoneal (i.p) injection is the preferred route of administration of the test items in this model and DMSO/PEG is used as vehicle to prepare the test item solution.
Tested peptides were dissolved in 100% DMSO. Thereafter Polyethylene glycol (PEG) 400 is added to the solution. Sterile water was used to dilute to a final concentration of 0.5% DMSO/10% PEG 400/H2O to result 2 mg/ml. The solution is prepared and divided into marked aliquots and stored at −70° C.
Species/Strain: Mice/Balb/c male˜8 weeks
Animals were housed under standard laboratory conditions, air conditioned and filtered (HEPA F6/6) with adequate fresh air supply (31 air changes/hour). Animals were kept in a climate controlled environment. Temperatures range is between 20-24° C. and RH is between 30-70% with 12 hours light and 12 hours dark cycle. Animals were housed in polyethylene cages (7/cage) measuring 35×30×15 cm, with stainless steel top grill facilitating pelleted food and drinking water in plastic bottle; bedding: steam sterilized clean paddy husk. Bedding material is changed along with the cage at least twice a week. Diet: Animals are fed ad libitum a commercial rodent diet (Teklad Certified Global 18% Protein Diet cat #: 106S8216). Animals have free access to drinking water obtained from the municipality supply. Surgical Procedure: Anesthesia: Isoflurane 1.5-3% in a mixture of O2/N2O, under spontaneous respiration. All four limbs of the animal were taped down in order to facilitate the animal for surgery. Both hind legs of the animals are shaved and disinfected. On the operated leg, the right leg in all animals, an incision was made from the inguinal area to the proximity of the knee. The femoral vein/artery/nerve were exposed. The artery is dissected free from the vein, nerve and surrounding fascia. Distal to its bifurcation with the profound femoral artery, using 6-0 silk suture the artery is ligated twice, and thereafter transected between these two points (see prox-A-group model appendix I). The surgical wound is closed with 6-0 silk and the mouse is returned to its cage. The left leg is untreated control in all animals. Exclusion criteria: Only mice, whose mean flux measurement post surgery is […] and ≦50% of the pre surgical measurement, are incorporated into the study. Mice whose mean flux measurement post surgery out of this range were excluded from the study.
[formula] Drug administration: All animals were dosed by IP administration at a dose volume of 10 ml/kg.
Tests and Evaluation: Body weight: Body weights were measured prior to surgery, prior to each dosing, and prior to necropsy. Blood flow measurement: Using a Laser Doppler apparatus (Perimed PeriScan PIM II System, Technical manual available at test facility) Blood flow was measured (operated leg & control leg) while the legs are in their natural resting position at the following time points: Before surgery (after shaving) & Post surgery (Day 0); Day 1; Day 8; Day 15; Day 22; and Day 29. Each time point for each mouse consists of three measurements. Blood flow was measured, additionally, in first 10 animals at Pre before shaving. […]

[2] = tested on: blood vessels of mice (Evans-Blue leakage); assay: Inhibition of blood-vessel leakiness (Evans-Blue leakage in mice); type: in vivo, mouse
Procedure: The peptide of SEQ ID NO: 12 (Myr-Gly-Nle-Arg-Pro-Tyr-NH2), or vehicle (10% PEG-400, 90% DDW), were injected i.p. to mice, in an amount of 20 or 40 mg/Kg. 5 min, 10 min, 1 hr or 4 hrs later, 0.2 ml per 25 g mouse (40 mg/Kg) of 5 mg/ml Evans-Blue solution in double distilled water (DDW) was injected i.p. The experiment was terminated after 30 min and skull was opened to view the brain surface (“Neurosurgery”) and assess the amount of Evans-Blue leaking from blood vessels.
Principle of peripheral vessels staining: Evans-Blue; it is a poly-anionic compound having a M.W. of 960 Dalton, that binds tightly to albumin and being used to track vessel-permeability. In case of blood-vessel leakiness, the Evans-Blue-albumin complex escapes from the blood-stream into the surrounding interstitial fluid with the result of blue coloring of the extremities and the bluish appearance at the brain surface.
In a specific experiment, 40 mg/kg of peptide of SEQ ID NO: 12 or vehicle were injected, each to 2 mice, i.p. 5 min before color injection. Evans-blue, at 40 mg/kg was then injected i.p. and 30 min later “Neurosurgery” was performed and the escape of the color from the blood stream was monitored as manifested by the bluish appearance of the brain surrounding tissue.
In another experiment, 40 mg/kg of peptide SEQ ID NO: 12 were injected to mice, i.p. 1 or 4 hours before color injection (Evans-blue, 40 mg/kg i.p. for 30 minutes). Control mice received i.p. injection of vehicle ([…]) 1 hour before color injection.

Myr-Gly-Nle-Arg-Pro-Tyr-NH2 (Myristoyl-G[Nle]RPY-NH2; SMILES CCCCCCCCCCCCCC(=O)NCC(=O)N[C@@H](CCCC)C(=O)N[C@@H](CCCNC(=N)N)C(=O)N1CCC[C@H]1C(=O)N[C@@H](Cc1ccc(O)cc1)C(N)=O) [AB-017]
perfusion, leg function and leg necrosis (in words) ([1]; 20 mg/kg IP twice weekly for 4 weeks, vs vehicle control and 725-106): significant improvement of the ischemic leg
Functional evaluation at day 15 (individual mouse) ([1]; 20 mg/kg IP twice weekly, function score 0 (flexing the toes) to 3 (dragging of foot), one value per mouse, listed as AB-107): 3.0 (2×) and 2.0 and 0.0 (4×)
Hind limb ischemia evaluation at day 15, Average ([1]; 20 mg/kg IP twice weekly, group average of ischemic score): 0.7
Hind limb ischemia evaluation at day 15 (individual mouse) ([1]; 20 mg/kg IP twice weekly, ischemic score 0 (absence of necrosis) to 4 (total hind-limb loss), one value per mouse, listed as AB-107): 2.0 (2×) and 0.0 (4×) and 1.0
Evans-Blue leaking from blood vessels (brain and periphery) ([2]; 20 mg/kg i.p. 10 min before Evans-blue 40 mg/kg i.p., 30 minutes): no color was leaking
Evans-Blue leaking from blood vessels (brain) ([2]; 40 mg/kg i.p. 5 min before Evans-blue 40 mg/kg i.p., read 30 min later): no color was leaking
Evans-Blue leaking from blood vessels (brain) ([2]; 40 mg/kg i.p. 1 hr before Evans-blue 40 mg/kg i.p., 30 minutes): no color was leaking
Evans-Blue leaking from blood vessels (brain) ([2]; 40 mg/kg i.p. 4 hrs before Evans-blue 40 mg/kg i.p., 30 minutes): only a partial protection
